# Calls of active or inactive are those of the source.
# Tests used:
# [1] = target: T1, cGMP-dependent protein kinase 1 (Homo sapiens, UniProt Q13976)
# T1 sequence (Q13976 whole entry): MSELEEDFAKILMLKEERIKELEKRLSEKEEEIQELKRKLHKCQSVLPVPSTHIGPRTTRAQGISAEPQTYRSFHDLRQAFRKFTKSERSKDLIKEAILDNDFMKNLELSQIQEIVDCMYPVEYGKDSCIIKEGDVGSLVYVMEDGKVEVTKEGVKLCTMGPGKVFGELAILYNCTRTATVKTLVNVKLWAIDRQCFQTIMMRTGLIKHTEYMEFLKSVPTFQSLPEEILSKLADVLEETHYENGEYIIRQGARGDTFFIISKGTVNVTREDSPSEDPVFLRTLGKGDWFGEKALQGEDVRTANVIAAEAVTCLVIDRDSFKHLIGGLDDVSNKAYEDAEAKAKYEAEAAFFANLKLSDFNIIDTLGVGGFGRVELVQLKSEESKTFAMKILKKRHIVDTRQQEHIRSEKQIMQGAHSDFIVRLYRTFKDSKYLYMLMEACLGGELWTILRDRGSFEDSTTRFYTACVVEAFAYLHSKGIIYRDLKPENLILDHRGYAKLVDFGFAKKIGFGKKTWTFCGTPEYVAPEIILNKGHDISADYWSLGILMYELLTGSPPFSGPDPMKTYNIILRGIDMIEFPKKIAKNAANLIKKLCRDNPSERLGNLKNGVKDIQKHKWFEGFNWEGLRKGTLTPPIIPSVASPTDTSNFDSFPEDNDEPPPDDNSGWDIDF
# [2] = target: T2, Serine/threonine-protein kinase D2 (Homo sapiens, UniProt Q9BZL6)
# T2 sequence (Q9BZL6 whole entry): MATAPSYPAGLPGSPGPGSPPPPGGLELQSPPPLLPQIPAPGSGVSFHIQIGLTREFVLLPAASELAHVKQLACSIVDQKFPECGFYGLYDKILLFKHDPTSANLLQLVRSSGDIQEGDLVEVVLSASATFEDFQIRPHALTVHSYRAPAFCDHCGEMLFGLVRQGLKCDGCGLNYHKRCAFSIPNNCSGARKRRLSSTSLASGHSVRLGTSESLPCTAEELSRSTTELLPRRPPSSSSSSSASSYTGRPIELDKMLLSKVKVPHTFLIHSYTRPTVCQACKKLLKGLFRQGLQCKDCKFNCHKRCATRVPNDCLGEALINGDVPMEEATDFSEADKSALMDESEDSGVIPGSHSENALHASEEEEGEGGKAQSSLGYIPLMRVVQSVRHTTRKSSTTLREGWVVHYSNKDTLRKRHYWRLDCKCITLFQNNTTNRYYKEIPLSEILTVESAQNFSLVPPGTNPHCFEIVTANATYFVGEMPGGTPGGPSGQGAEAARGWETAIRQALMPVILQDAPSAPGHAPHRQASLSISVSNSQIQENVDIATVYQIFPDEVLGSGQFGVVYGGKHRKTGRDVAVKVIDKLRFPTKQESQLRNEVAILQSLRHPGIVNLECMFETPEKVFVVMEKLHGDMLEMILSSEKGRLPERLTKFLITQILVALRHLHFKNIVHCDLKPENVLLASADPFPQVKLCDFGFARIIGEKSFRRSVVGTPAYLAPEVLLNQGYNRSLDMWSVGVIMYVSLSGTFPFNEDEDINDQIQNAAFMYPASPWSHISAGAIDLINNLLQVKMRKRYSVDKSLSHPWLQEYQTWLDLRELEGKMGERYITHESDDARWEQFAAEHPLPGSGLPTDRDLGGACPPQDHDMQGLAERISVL
# [3] = target: T3, Structural maintenance of chromosomes protein 1A (Homo sapiens, UniProt Q14683)
# T3 sequence (Q14683 whole entry): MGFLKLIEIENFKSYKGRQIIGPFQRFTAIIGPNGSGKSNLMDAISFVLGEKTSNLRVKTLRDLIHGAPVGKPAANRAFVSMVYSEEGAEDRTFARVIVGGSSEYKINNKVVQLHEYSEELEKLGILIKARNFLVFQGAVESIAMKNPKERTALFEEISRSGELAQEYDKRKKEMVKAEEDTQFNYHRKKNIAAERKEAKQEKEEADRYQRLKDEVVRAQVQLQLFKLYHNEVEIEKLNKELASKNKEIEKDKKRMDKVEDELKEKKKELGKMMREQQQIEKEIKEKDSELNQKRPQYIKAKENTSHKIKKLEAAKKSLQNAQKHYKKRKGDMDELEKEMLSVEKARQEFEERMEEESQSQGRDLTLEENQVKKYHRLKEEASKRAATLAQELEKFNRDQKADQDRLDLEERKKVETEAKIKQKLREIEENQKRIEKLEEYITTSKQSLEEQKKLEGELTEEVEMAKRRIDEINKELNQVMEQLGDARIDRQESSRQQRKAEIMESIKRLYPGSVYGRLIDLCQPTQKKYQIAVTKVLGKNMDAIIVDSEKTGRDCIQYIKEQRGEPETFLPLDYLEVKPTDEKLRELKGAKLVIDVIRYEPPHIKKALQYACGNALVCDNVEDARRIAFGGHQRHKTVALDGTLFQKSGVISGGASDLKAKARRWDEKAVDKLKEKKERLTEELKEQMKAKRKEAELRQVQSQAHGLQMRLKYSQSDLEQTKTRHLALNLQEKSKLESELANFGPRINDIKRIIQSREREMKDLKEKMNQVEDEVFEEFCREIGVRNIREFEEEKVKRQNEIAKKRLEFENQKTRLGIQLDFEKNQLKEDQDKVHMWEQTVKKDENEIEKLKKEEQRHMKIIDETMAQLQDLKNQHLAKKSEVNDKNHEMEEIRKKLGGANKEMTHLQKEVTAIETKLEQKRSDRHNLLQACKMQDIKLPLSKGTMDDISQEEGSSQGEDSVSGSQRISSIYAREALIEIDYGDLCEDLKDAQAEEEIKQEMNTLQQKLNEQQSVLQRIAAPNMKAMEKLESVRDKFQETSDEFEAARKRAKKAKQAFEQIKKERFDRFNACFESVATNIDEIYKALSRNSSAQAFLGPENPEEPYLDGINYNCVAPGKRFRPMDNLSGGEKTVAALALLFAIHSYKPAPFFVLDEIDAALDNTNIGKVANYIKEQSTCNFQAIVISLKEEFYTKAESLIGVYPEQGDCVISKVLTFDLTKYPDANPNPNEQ
# Note: in the data inactive means no Kd found up to 30 µM.
Compound,Kd [1],Kd [2],Kd [3]
O=c1sn(-c2cccc3ccccc23)c(=O)n1Cc1ccccc1 [TIDEGLUSIB],> 30 µM (inactive),> 30 µM (inactive),> 30 µM (inactive)
Cn1cc(-c2ccc3nnc(C(F)(F)c4ccc5ncccc5c4)n3n2)cn1 [JNJ-38877605],> 30 µM (inactive),> 30 µM (inactive),> 30 µM (inactive)
Cn1ncc(Cl)c1-c1cc(C(=O)N[C@H](CN)Cc2cccc(F)c2)sc1Cl [AFURESERTIB],> 30 µM (inactive),3.91 µM (active),> 30 µM (inactive)
CNS(=O)(=O)Nc1nccc(Cc2c(C)c3ccc(Oc4ncccn4)cc3oc2=O)c1F [AVUTOMETINIB],> 30 µM (inactive),> 30 µM (inactive),> 30 µM (inactive)
CN(C)C(=O)c1cc2cnc(Nc3ccc(N4CCNCC4)cn3)nc2n1C1CCCC1 [RIBOCICLIB],> 30 µM (inactive),25 µM (active),> 30 µM (inactive)
CCc1cnn2c(NCc3ccc[n+]([O-])c3)cc(N3CCCC[C@H]3CCO)nc12 [DINACICLIB],> 30 µM (inactive),> 30 µM (inactive),> 30 µM (inactive)
COc1ccc(-c2ccc3c(N4CCOC[C@@H]4C)nc(N4CCOC[C@@H]4C)nc3n2)cc1CO [AZD-8055],> 30 µM (inactive),> 30 µM (inactive),> 30 µM (inactive)
COc1cc2nccc(Oc3ccc(NC(=O)Nc4cc(C)on4)c(Cl)c3)c2cc1OC [TIVOZANIB],> 30 µM (inactive),> 30 µM (inactive),> 30 µM (inactive)
C[C@@H](Nc1cc(F)cc(F)c1)c1cc(C(=O)N(C)C)cc2c(=O)cc(N3CCOCC3)oc12 [AZD-8186],> 30 µM (inactive),> 30 µM (inactive),> 30 µM (inactive)
CNC(=O)CN1CCC(Oc2cc3c(Nc4cccc(Cl)c4F)ncnc3cc2OC)CC1 [SAPITINIB],> 30 µM (inactive),> 30 µM (inactive),> 30 µM (inactive)
CCCS(=O)(=O)Nc1ccc(F)c(C(=O)c2c[nH]c3ncc(-c4ccc(Cl)cc4)cc23)c1F [VEMURAFENIB],> 30 µM (inactive),> 30 µM (inactive),> 30 µM (inactive)
CNC(=O)c1ccc(C)c(-n2c(C)cc(OCc3ccc(F)cc3F)c(Br)c2=O)c1 [PH-797804],> 30 µM (inactive),> 30 µM (inactive),> 30 µM (inactive)
COC(=O)[C@@]1(O)C[C@H]2O[C@]1(C)n1c3ccccc3c3c4c(c5c6ccccc6n2c5c31)C(=O)NC4 [K-252A],> 30 µM (inactive),0.03 µM (active),> 30 µM (inactive)
C[C@@H](c1ccc2nccn2c1)n1nnc2ncc(-c3cnn(C)c3)nc21 [SAVOLITINIB],> 30 µM (inactive),> 30 µM (inactive),> 30 µM (inactive)
CN1CCC(COc2cnc(-c3cccc(Cn4nc(-c5cccc(C#N)c5)ccc4=O)c3)nc2)CC1 [TEPOTINIB],> 30 µM (inactive),> 30 µM (inactive),> 30 µM (inactive)
COc1cc(N2CCC(N3CCN(C)CC3)CC2)ccc1Nc1ncnc(Nc2ccccc2S(=O)(=O)C(C)C)n1 [ASP-3026],> 30 µM (inactive),2.67 µM (active),–
CNC(=O)c1ccc(-c2cnc3ncc(Cc4ccc5ncccc5c4)n3n2)cc1F [CAPMATINIB],> 30 µM (inactive),> 30 µM (inactive),> 30 µM (inactive)

Compound,Kd [1],Kd [2],Kd [3]
CCn1c(=O)c(-c2cc[nH]n2)cc2c(C)nc(N)nc21 [VOXTALISIB],> 30 µM (inactive),> 30 µM (inactive),> 30 µM (inactive)
Cc1cc2c(F)c(Oc3ncnn4cc(OC[C@@H](C)OC(=O)[C@H](C)N)c(C)c34)ccc2[nH]1 [BRIVANIB ALANINATE],> 30 µM (inactive),> 30 µM (inactive),> 30 µM (inactive)
COc1cc(OC)c(/C=C/S(=O)(=O)Cc2ccc(OC)c(NCC(=O)O)c2)c(OC)c1 [RIGOSERTIB],> 30 µM (inactive),> 30 µM (inactive),> 30 µM (inactive)
C=CC(=O)N1CCC(Oc2cc3c(Nc4ccc(Cl)c(Cl)c4F)ncnc3cc2OC)CC1 [POZIOTINIB],> 30 µM (inactive),> 30 µM (inactive),> 30 µM (inactive)
Cc1ccc(-n2nc(C(C)(C)C)cc2NC(=O)NCc2cc(F)ccc2Oc2ccc3c(cnn3CCO)c2)cc1 [PEXMETINIB],> 30 µM (inactive),> 30 µM (inactive),> 30 µM (inactive)
Cn1cc(-c2ccc(F)c(C(F)(F)F)c2)nc1C1CCN(c2ncnc3[nH]ncc23)CC1 [LY-2584702],> 30 µM (inactive),> 30 µM (inactive),–
CC[C@H](Nc1ncnc2[nH]cnc12)c1nc2cccc(F)c2c(=O)n1-c1ccccc1 [IDELALISIB],> 30 µM (inactive),> 30 µM (inactive),> 30 µM (inactive)
Cc1cn(-c2cc(NC(=O)c3ccc(C)c(Nc4nccc(-c5cccnc5)n4)c3)cc(C(F)(F)F)c2)cn1 [NILOTINIB],–,–,> 30 µM (inactive)
O=C1NC(=O)/C(=C/c2ccc3nccc(-c4ccncc4)c3c2)S1 [GSK-1059615],> 30 µM (inactive),> 30 µM (inactive),> 30 µM (inactive)
CNC(=O)c1cc(Oc2ccc(NC(=O)Nc3ccc(Cl)c(C(F)(F)F)c3)c(F)c2)ccn1 [REGORAFENIB],> 30 µM (inactive),> 30 µM (inactive),> 30 µM (inactive)
Cc1cc(Nc2cc(N3CCN(C)CC3)nc(/C=C/c3ccccc3)n2)n[nH]1 [ENMD-2076],–,–,> 30 µM (inactive)
OCCn1cc(-c2cnc3nnn(Cc4ccc5ncccc5c4)c3n2)cn1 [PF-04217903],> 30 µM (inactive),> 30 µM (inactive),–
O=C(Nc1cccc(Cl)c1)Nc1ncc(CCNc2ncnc3ccsc23)s1 [SNS-314],–,–,> 30 µM (inactive)
Cc1nc(N)sc1-c1ccnc(Nc2ccc(N3CCOCC3)cc2)n1 [CYC-116],–,–,> 30 µM (inactive)
CCn1c(-c2nonc2N)nc2c(C#CC(C)(C)O)ncc(OC[C@H]3CCCNC3)c21 [GSK-690693],–,–,> 30 µM (inactive)
CN1CCN(c2ccc3nc(-c4c(N)c5c(F)cccc5[nH]c4=O)[nH]c3c2)CC1 [DOVITINIB],–,–,> 30 µM (inactive)

# Reference: ChEMBL document CHEMBL3991601, “The target landscape of clinical kinase drugs” (Science, 2017)
